Assay [1] has as its system B-16 melanoma cells implanted in mice. As to the kind of experiment: Animal test of growth inhibition of implanted B-16 melanoma in mice. In kind it is in vivo. Conditions: tumor weight vs control at day 14; for inhibition in vivo at 100 mg: Mus musculus, B16, read-out: Tumor inhibiting efficiency, female BDF1-JCR mice, 1 x 10^5 B-16 cells subcutaneously; for Tumor inhibiting efficiency: female BDF1-JCR mice. As for the experimental part:
Animal tests were conducted to examine the activity of several compounds including 2-(2-aminoethylthio)ethyl trimethyl silane in the inhibiting power against the growth of the B-16 melanoma cells implanted in mice as the test animals.
Thus each of 12 female mice of the BDF1-JCR lineage was implanted subcutaneously with 1 x 10^5 cells of the B-16 black tumor.
Six of the thus treated mice were bred as such as a control group and the other six mice as the test group were orally administrated once a day with 100 mg of the test compound for 5 days beginning with the second day of the implantation.
The results of the tests were expressed by the tumor inhibiting efficiency in % calculated by the following equation, in which W^1 is the averaged tumor weight per mouse in the control group and W^2 is the averaged tumor weight per mouse in the test group. [formula]
For comparison, similar animal tests were undertaken with FT-207 as a derivative of 5-fluorouracil with the dose amount at one time increased to 130 mg.

Another assay concerns Lewis lung cancer cells. Description: In vitro tissue culture test of tumor cell growth inhibition. Conditions: Lewis lung carcinoma, Eagle's medium with 10 % calf blood plasma, 37 °C, compound added after 24 hours, three further days. The format is cell-based. Here is the method:
(§1) An in vitro test by tissue culture was undertaken for the activity of 2-(2-aminoethylthio)ethyl trimethyl silane against the growth of three kinds of tumor cells. The tumor cells used in the test were Ehrlich's cancer cells, Lewis lung cancer cells and B-16 melanoma cells and each kind of the above tumor cells was cultured in several Eagle's nutrient media admixed with 10 % of calf blood plasma at 37 °C.
(§2) After 24 hours from the start of the culture, 2-(2-amino- ethylthio)ethyl trimethyl silane was added to each of the nutrient media in a different concentration and, after additional three days at the same temperature, the conentration IC50 was determined with which the multiplication of the tumor cells was inhibited in 50 % of the tested groups. The results were as shown below

A further assay concerns Ehrlich's cancer cells. The assay is described as above. Conditions: Eagle's medium with 10 % calf blood plasma, 37 °C, compound added after 24 hours, three further days. The format is cell-based. Here is the method:
as §1, §2

For another assay, the system named is B-16 melanoma cells. Described as above. The format is cell-based. Conditions: Mus musculus, B16, Eagle's medium with 10 % calf blood plasma, 37 °C, compound added after 24 hours, three further days. Here is the method:
as §1, §2

Setting [2] is: oral, 100 mg once a day for 5 days from second day.
[3] abbreviates: 1 x 10^5 B-16 cells subcutaneously, oral, 100 mg once a day for 5 days from second day.

SMILES strings stand for the structures. In brackets after ≈: the same amount, converted by molar mass. Where a name gives a salt, the structure may show the parent alone.

Consider `CCN(CC)CSCC[Si](CC)(CC)CC` [Et3Si-(-CH2)2-S-CH2-NEt2], for which the inhibition in vivo at 100 mg in assay [1] (setting [2]) came to 90.5%.

As for `C[Si](C)(CCSCCN)CCC(F)(F)F` [(CF3CH2CH2)Me2Si-(CH2-)2-S-(-CH2-)2-NH2, 2-(2-aminoethylthio)-ethyl 3,3,3-trifluoropropyl dimethyl silane], in assay [1] (setting [2]), the inhibition in vivo at 100 mg was determined as 96.8%. In assay [1] (setting [3]), `C[Si](C)(C)CCSCCN` [Me3Si-(-CH2-)2-S-(-CH2-)2-NH2·CH3COOH] showed a Tumor inhibiting efficiency of 95.0%. Regarding `CCN(CC)CSCCC[Si](CC)(CC)CC` [Et3Si-(-CH2-)3-S-CH2-NEt2], the inhibition in vivo at 100 mg in assay [1] (setting [2]) was 84.4%. Same read-out and setting: then `CCN(CC)CSC[Si](C)(CC)CC` [Me·Et2Si-CH2-S-CH2-NEt2], with 86.5%; and `C[Si](C)(C)CCCSCCN` [Me3Si-(-CH2-)3-S-(-CH2-)2-NH2, 3-(2-aminoethylthio)propyl trimethyl silane], with 93.9%. In assay [1] (setting [3]), `C[Si](C)(C)CCSCCN` [Me3Si-(-CH2-)2-S-(-CH2-)2-NH2·HCl, hydrochloride of 2-(2-aminoethylthio)ethyl trimethyl silane] returned a Tumor inhibiting efficiency of 97.9%.

`CC[Si](CC)(CC)CCSCCN` [Et3Si-(-CH2-)2-S-(-CH2-)2-NH2, 2-(2-aminoethylthio)ethyl triethyl silane]: the inhibition in vivo at 100 mg in assay [1] (setting [2]) was 90.8%.

Regarding `CCN(CC)CCSCCC[Si](CC)(CC)CC` [Et3Si-(-CH2-)3-S-(-CH2-)2-NEt2], the inhibition in vivo at 100 mg in assay [1] (setting [2]) was determined as 76.7%. Still for that read-out and setting: then `CCN(CC)CSCC[Si](C)(C)C` [Me3Si-(-CH2-)2-S-CH2-NEt2], with 89.2%. By IC50 is commonly meant the concentration that gives 50% inhibition. Regarding `C[Si](C)(C)CCSCCN` [Me3Si-(-CH2-)2-S-(-CH2-)2-NH2, 2-(2-aminoethylthio)ethyl trimethyl silane], the IC50 with Lewis lung cancer cells was determined as 14 µg/mL (≈ 78.9 µM); in the assay on Ehrlich's cancer cells, 12 µg/mL (≈ 67.6 µM); in the assay on B-16 melanoma cells, 18 µg/mL (≈ 101 µM). Further, the inhibition in vivo at 100 mg in assay [1] (setting [2]) came out at 95.6%. Consider `C[Si](C)(CCSCCN)c1ccccc1` [Ph·Me2Si-(-CH2-)2-S-(-CH2-)2-NH2, 2-(2-aminoethylthio)ethyl phenyl dimethyl silane], for which the inhibition in vivo at 100 mg in assay [1] (setting [2]) came out at 82.6%. `CCN(CC)CSC[Si](CC)(CC)CC` [Et3Si-CH2-S-CH2-NEt2]: in assay [1] (setting [2]), the inhibition in vivo at 100 mg is 81.7%.

`CCN(CC)CSCC[Si](C)(CC)CC` [Me·Et2Si-(-CH2-)2-S-CH2-NEt2]: the inhibition in vivo at 100 mg in assay [1] (setting [2]) is 86.9%.

On to `O=c1[nH]c(=O)n(C2CCCO2)cc1F` (stereo not drawn) [FT-207, reference compound], for which the Tumor inhibiting efficiency in assay [1] (comparison, B-16 cells subcutaneously, dose at one time 130 mg) was determined as 20.5%. Consider `CCN(CC)CSCCC[Si](C)(C)C` [Me3Si-(-CH2-)3-S-CH2-NEt2], for which the inhibition in vivo at 100 mg in assay [1] (setting [2]) came to 83.9%. On the same count and under the same terms, then `CC[Si](CC)(CC)CSCCN` [Et3Si-CH2-S-(-CH2-)2-NH2, (2-aminoethylthio)methyl triethyl silane], with 91.1%; and `C=C[Si](C)(C)CCSCCN` [Vi·Me2Si-(-CH2-)2-S-(-CH2-)2-NH2, 2-(2-aminoethylthio) ethyl vinyl dimethyl silane], with 95.7%.

(Values after patent publication EP0046242A1, “Anti-tumor agent comprising an organosilicon compound” (Shin-Etsu Chemical Co., Ltd., priority 1980, dated 1982).)
